Columns and labels:
Format in all cases: cell-based, human
leiomyoma cells [1] = assay: Treatment of leiomyoma cells with RITA, qRT-PCR; conditions: cells of fibroids, 10 μM RITA, 72 h
Procedure: For treatment with RITA (Biomol, Hamburg, Germany) cells were plated in Leighton-tubes at a density of 200,000 on 10 mm×50 mm cover slips 24 h before incubation with RITA. Cells were treated with 1 μM and 10 μM RITA for 72 h. As controls cells were cultured in medium 199 supplemented with 20% FCS without RITA for 72 h. Relative quantification of transcription levels was carried out by real-time PCR analyses using the Applied Biosystems 7300 real-time PCR system (Applied Biosystems, Darmstadt, Germany). Commercially available gene expression assays (Applied Biosystems, Darmstadt, Germany) were used for quantification of mRNA of human BAX (Hs00180269_m1), p21 (Hs99999142), β-Gal (Hs01035162) and Ki67 (Hs00606991_m1). HPRT served as endogenous control. All qRT-PCR experiments were done in triplicate.

[2] = system: explants of fibroids and matching myometrium; assay: Treatment of explants of fibroids and matching myometrium with RITA, qRT-PCR; conditions: explants in short term culture, RITA 10 μM, 72 h
Procedure: For the experiments explants from a leiomyoma with a clonal complex chromosomal rearrangement involving chromosome 10 along with matching myometrium were taken during surgery and immediately transferred into sterile Hank's solution. For treatment with RITA (Biomol, Hamburg, Germany) tissue samples were minced into small pieces of approximately 0.5 cm diameter and incubated in medium 199 supplemented with 20% FCS and RITA (10 μM) for 72 h. As controls tissue explants were incubated in medium 199 supplemented with 20% FCS without RITA for 72 h. Relative quantification of transcription levels was carried out by real-time PCR analyses using the Applied Biosystems 7300 real-time PCR system (Applied Biosystems, Darmstadt, Germany). Commercially available gene expression assays (Applied Biosystems, Darmstadt, Germany) were used for quantification of mRNA of human BAX (Hs00180269_m1), p21 (Hs99999142), β-Gal (Hs01035162) and Ki67 (Hs00606991_m1). HPRT served as endogenous control. All qRT-PCR experiments were done in triplicate.

leiomyoma cells [3] = assay: Treatment of leiomyoma cells with Tenovin-1, qRT-PCR of p21 and BAX
Procedure: For treatment with Tenovin-1 (Biomol, Hamburg, Germany) cells were plated in Leighton-tubes at a density of 200,000 on 10 mm×50 mm cover slips 24 h before incubation with Tenovin-1. Cells were treated with 3 μM and 10 μM Tenovin-1 for 24 and for 72 h, respectively. As controls cells were cultured in medium 199 supplemented with 20% FCS without Tenovin-1 for 24 and for 72 h, respectively.

OCc1ccc(-c2ccc(-c3ccc(CO)s3)o2)s1 [RITA, 2,5-bis-(5-Hydroxymethyl-2-thienyl)-furan]
expression of BAX (leiomyoma cells [1]): significant increase | expression of Ki-67 (leiomyoma cells [1]): decrease | expression of p21 (leiomyoma cells [1]): significant increase | expression of β-galactosidase (leiomyoma cells [1]): significant increase | expression of BAX [2]: significant increase | expression of p21 [2]: significant increase

CC(=O)Nc1ccc(NC(=S)NC(=O)c2ccc(C(C)(C)C)cc2)cc1 [Tenovin-1]
expression of p21 (leiomyoma cells [3]; 3 μM and 10 μM, 24 h and 72 h, p<0.01 with both concentrations): significant increase | expression of BAX (leiomyoma cells [3]; significant at 24 h with 3 μM and 10 μM (p<0.001) and 72 h with 10 μM (p<0.01)): significant increase
